Read-outs that look alike come from different tables or passages of the source.
Assays:
OATP1B1 [1] = target: T1, OATP1B1 (Homo sapiens, UniProt Q9Y6L6); conditions: read-out: reported Km for OATP1B1; HEK293 cells; cited from earlier work
T1 sequence (Q9Y6L6 1-691): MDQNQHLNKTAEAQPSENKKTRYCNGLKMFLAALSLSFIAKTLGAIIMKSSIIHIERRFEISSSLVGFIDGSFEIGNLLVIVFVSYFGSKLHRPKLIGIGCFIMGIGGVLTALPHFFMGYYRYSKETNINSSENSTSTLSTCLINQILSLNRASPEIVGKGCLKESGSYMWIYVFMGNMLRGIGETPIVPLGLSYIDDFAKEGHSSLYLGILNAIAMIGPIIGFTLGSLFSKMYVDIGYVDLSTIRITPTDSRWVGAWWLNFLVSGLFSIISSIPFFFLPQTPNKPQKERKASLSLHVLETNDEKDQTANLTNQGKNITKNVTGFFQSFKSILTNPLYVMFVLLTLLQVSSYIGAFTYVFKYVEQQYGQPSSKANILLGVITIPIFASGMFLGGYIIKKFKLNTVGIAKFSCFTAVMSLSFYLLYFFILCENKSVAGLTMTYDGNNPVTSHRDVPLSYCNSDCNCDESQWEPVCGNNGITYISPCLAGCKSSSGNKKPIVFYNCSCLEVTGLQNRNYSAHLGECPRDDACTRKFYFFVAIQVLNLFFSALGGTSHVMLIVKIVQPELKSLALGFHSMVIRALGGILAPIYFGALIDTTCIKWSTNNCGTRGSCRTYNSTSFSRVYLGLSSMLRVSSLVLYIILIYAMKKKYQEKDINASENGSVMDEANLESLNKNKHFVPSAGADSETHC

mTOR C2 = assay: Immunoblot of phosphorylated AKT; assay type: cell-based, human; conditions: 1 h pre-incubation: EVR 0.2 µM, SIR 0.5 µM, INK-128 10 µM; vs vehicle control
CYP3A4 = conditions: cited from earlier work
mTOR C1 = assay: Immunoblot of phosphorylated p70S6K; assay type: cell-based, human; conditions: 1 h pre-incubation: EVR 0.2 µM, SIR 0.5 µM, INK-128 10 µM; vs vehicle control
[2] = cited from earlier work
HEK293-OATP1B3 = conditions: 1 h pre-incubation, EVR 0.001–10 µM, SIR 0.01–5 µM
CYP3A5 = conditions: cited from earlier work
OATP1B1 [3] = target: T1, OATP1B1; assay: Transport kinetics of OATP1B1-mediated E217βG transport in HEK293 cells; assay type: cell-based; conditions: co-incubation with 5 µM inhibitor, without pre-incubation
P-gp = conditions: Caco-2 monolayers; cited from earlier work
OATP1A2 = conditions: cited from earlier work
OATP1B1 [4] = target: T1, OATP1B1; conditions: substrate E1S; without pre-incubation; cited from earlier work
OATP1B3 [5] = target: T2, OATP1B3 (Homo sapiens, UniProt Q9NPD5); assay: Inhibition of OATP1B3-mediated [3H]-CCK-8 transport in HEK293-OATP1B3 cells; assay type: cell-based; conditions: washing; for OATP1B3-mediated transport ([3H]-CCK-8 accumulation): 1 h pre-incubation alone: EVR 0.2 µM, SIR 0.5 µM, INK-128 10 µM; for OATP1B3-mediated [3H]CCK-8 accumulation: 1 h pre-incubation with EVR 0.2 µM
T2 sequence (Q9NPD5 1-702): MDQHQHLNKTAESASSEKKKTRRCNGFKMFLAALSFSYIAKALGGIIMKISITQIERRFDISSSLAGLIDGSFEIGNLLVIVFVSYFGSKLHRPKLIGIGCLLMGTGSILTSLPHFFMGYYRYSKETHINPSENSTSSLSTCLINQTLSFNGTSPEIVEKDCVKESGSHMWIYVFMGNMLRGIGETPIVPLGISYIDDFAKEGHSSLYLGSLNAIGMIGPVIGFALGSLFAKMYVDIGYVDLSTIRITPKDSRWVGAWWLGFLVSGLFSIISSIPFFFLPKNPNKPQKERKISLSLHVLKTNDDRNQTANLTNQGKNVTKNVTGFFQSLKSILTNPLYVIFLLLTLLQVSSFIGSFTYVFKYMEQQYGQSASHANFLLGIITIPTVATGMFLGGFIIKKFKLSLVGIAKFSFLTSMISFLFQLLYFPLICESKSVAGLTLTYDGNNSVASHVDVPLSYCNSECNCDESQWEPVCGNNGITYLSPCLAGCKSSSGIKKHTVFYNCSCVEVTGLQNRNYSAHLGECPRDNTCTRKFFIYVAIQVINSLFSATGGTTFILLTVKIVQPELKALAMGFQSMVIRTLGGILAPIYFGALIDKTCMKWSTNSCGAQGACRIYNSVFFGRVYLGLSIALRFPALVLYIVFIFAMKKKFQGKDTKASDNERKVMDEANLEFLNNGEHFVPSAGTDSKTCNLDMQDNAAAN

OATP1B1 [6] = target: T1, OATP1B1; conditions: for OATP1B1-mediated transport ([3H]-E217βG accumulation): 1 h pre-incubation alone: EVR 0.2 µM, SIR 0.5 µM, INK-128 10 µM; for OATP1B1-mediated transport of [3H]-E1S after pre-incubation / OATP1B1-mediated transport of [3H]-rosuvastatin after pre-incubation: 1 h pre-incubation, EVR 0.1 or 0.2–10 µM, SIR 0.1–5 µM, 0.5 min, concentration-dependent, p<0.001; for OATP1B1-mediated transport of [3H]-E1S after pre-incubation: E1S 25 nM; for OATP1B1-mediated transport of [3H]-rosuvastatin after pre-incubation: rosuvastatin 20 nM
OATP1B1 [7] = target: T1, OATP1B1; assay: Static R-value model for OATP1B1-mediated DDI
[8] = human erythrocytes, blood concentration range 5–100 ng/ml; cited from earlier work
HEK293-OATP1B1 = assay: LDH assay; assay type: cell-based, human; conditions: 1 h pre-incubation, EVR 0.001–10 µM, SIR 0.01–5 µM
[9] = cited from earlier work; remark: listed apart in the source
OATP1B3 [10] = target: T2, OATP1B3; conditions: cited from earlier work
[11] = IC50, [3H]-E1S (25 nM, 0.5 min), co-incubation
[12] = IC50, [3H]-E1S (25 nM, 0.5 min), pre+co-incubation (1 h pre-incubation)
[13] = IC50, [3H]-E217βG (1 µM, 2 min), co-incubation
[14] = IC50, [3H]-E217βG (1 µM, 2 min), pre+co-incubation (1 h pre-incubation)
[15] = IC50, [3H]-rosuvastatin (20 nM, 0.5 min), co-incubation
[16] = IC50, [3H]-rosuvastatin (20 nM, 0.5 min), pre+co-incubation (1 h pre-incubation)
[17] = from co-incubation IC50, rosuvastatin
[18] = from pre+co-incubation IC50, E217βG
[19] = from pre+co-incubation IC50, rosuvastatin

Row | effect on Vmax of OATP1B1 (OATP1B1 [3]) | increase of Km of OATP1B1 (OATP1B1 [3]) | OATP1B3-mediated transport ([3H]-CCK-8 accumulation) (OATP1B3 [5]) | OATP1B1-mediated transport ([3H]-E217βG accumulation) (OATP1B1 [6]; washing) | OATP1B1-mediated transport of [3H]-E1S after pre-incubation (OATP1B1 [6]) | OATP1B1-mediated transport of [3H]-rosuvastatin after pre-incubation (OATP1B1 [6]) | IC50 (OATP1B1 [6]; [11]) | IC50 (OATP1B1 [6]; [12]) | IC50 (OATP1B1 [6]; [13]) | IC50 (OATP1B1 [6]; [14]) | IC50 (OATP1B1 [6]; [15]) | IC50 (OATP1B1 [6]; [16]) | R (OATP1B1 [7]; [17]) | R (OATP1B1 [7]; [18]) | Compound | Km (OATP1B1 [1]) | phosphorylation of AKT at S473 (mTOR C2) | amount of phosphorylated p70S6K at T389 (mTOR C1) | toxicity (LDH assay) (HEK293-OATP1B3) | inhibition of OATP1A2 (OATP1A2) | IC50 (OATP1B1 [4]) | further results
1 | – | – | – | – | – | – | – | – | – | – | – | – | – | – | C[C@]12CC[C@@H]3c4ccc(OS(=O)(=O)O)cc4CC[C@H]3[C@@H]1CCC2=O [E1S, estrone-3-sulfate] | 0.46 µM | – | – | – | – | – | –
2 | – | – | – | – | – | – | – | – | – | – | – | – | – | – | C[C@]12CC[C@@H]3c4ccc(O)cc4CC[C@H]3[C@@H]1CC[C@@H]2O[C@@H]1O[C@H](C(=O)O)[C@@H](O)[C@H](O)[C@H]1O [E217βG, estradiol 17 β-D-glucuronide] | 8.29 µM | – | – | – | – | – | –
3 | 1.2–1.7 fold vs. CTL | 6–10 fold | 0.60 ± 0.03 fold of control | 0.67 ± 0.02 fold of control | significantly decreased | significantly decreased | 0.61 ± 0.08 µM | 0.16 ± 0.02 µM | 0.48 ± 0.07 µM | 0.23 ± 0.06 µM | 1.58 ± 0.92 µM | 0.19 ± 0.07 µM | 1.03 (1.02–1.09) | 1.19 (1.16–1.26) | CO[C@H]1C[C@@H]2CC[C@@H](C)[C@@](O)(O2)C(=O)C(=O)N2CCCC[C@H]2C(=O)O[C@H]([C@H](C)C[C@@H]2CC[C@@H](OCCO)[C@H](OC)C2)CC(=O)[C@H](C)/C=C(\C)[C@@H](O)[C@@H](OC)C(=O)[C@H](C)C[C@H](C)/C=C/C=C/C=C/1C [EVR, everolimus] | – | did not inhibit | markedly reduced | negligible toxicity | inhibit | 4.1 ± 1.1 µM | Ki (CYP3A4; CYP3A4): 0.09 µM; fu,mic (CYP3A4): 0.14; Vss [2]: 1.55 (CV 36.0%) L/kg; steady-state AUC vs single dose AUC [2]: approximately 1.5 fold higher; time to steady state ([2]; multiple doses, 10 mg daily): around 7 days; Ki (CYP3A5; CYP3A5): 0.09 µM; fu,mic (CYP3A5): 0.14; basolateral-to-apical vs apical-to-basolateral transport (P-gp): ~ 20 fold; OATP1B3-mediated [3H]CCK-8 accumulation (OATP1B3 [5]; 4 h in EVR-free medium): 0.76 ± 0.04 fold of CTL; OATP1B3-mediated [3H]CCK-8 accumulation (OATP1B3 [5]; 6 h in EVR-free medium): 0.73 ± 0.04 fold of CTL; OATP1B3-mediated [3H]CCK-8 accumulation (OATP1B3 [5]; 22 h in EVR-free medium): 0.81 ± 0.06 fold of CTL; OATP1B3-mediated transport of [3H]CCK-8 (OATP1B3 [5]; after 1 h pre-incubation with EVR 0.2 µM): 0.76 ± 0.05 fold of control; Ki (OATP1B1 [6]): 0.022 µM; OATP1B1-mediated rosuvastatin accumulation (OATP1B1 [6]; 1 h pre-incubation with EVR 0.2 µM, washing, 4 h in fresh EVR-free medium): 0.87 ± 0.03 fold of CTL; OATP1B1-mediated transport of [3H]rosuvastatin (OATP1B1 [6]; after 1 h pre-incubation with EVR 0.2 µM, washing): 0.54 ± 0.07 fold of control; R (OATP1B1 [7]; [19]): 1.23 (1.10–1.42); erythrocyte binding [8]: approximately 85%; toxicity (LDH assay) (HEK293-OATP1B1): negligible toxicity; Compound type [9]: Neutral
4 | – | – | did not significantly affect | did not significantly affect | – | – | – | – | – | – | – | – | – | – | CC(C)n1nc(-c2ccc3oc(N)nc3c2)c2c(N)ncnc21 [INK-128] | – | markedly reduced | markedly reduced | – | – | – | –
5 | 1.2–1.7 fold vs. CTL | 6–10 fold | 0.49 ± 0.03 fold of control | 0.60 ± 0.05 fold of control | significantly decreased | significantly decreased | 0.83 ± 0.1 µM | 0.65 ± 0.12 µM | 0.64 ± 0.16 µM | 0.22 ± 0.04 µM | 0.56 ± 0.3 µM | 0.32 ± 0.11 µM | 1.00 (1.00–1.03) | 1.01 (1.01–1.02) | CO[C@H]1C[C@@H]2CC[C@@H](C)[C@@](O)(O2)C(=O)C(=O)N2CCCC[C@H]2C(=O)O[C@H]([C@H](C)C[C@@H]2CC[C@@H](O)[C@H](OC)C2)CC(=O)[C@H](C)/C=C(\C)[C@@H](O)[C@@H](OC)C(=O)[C@H](C)C[C@H](C)/C=C/C=C/C=C/1C [SIR, sirolimus] | – | did not inhibit | markedly reduced | negligible toxicity | inhibit | 9.8 ± 1.1 µM | time to steady state ([2]; multiple twice daily doses of 0.5–6.5 mg/m^2, stable renal transplant patients): 5 to 7 days; R (OATP1B1 [7]): 1.00 (1.00–1.01); R (OATP1B1 [7]; [19]): 1.01 (1.01–1.03); R (OATP1B1 [7]; from the previously published co-incubation IC50 (E1S, ref 24)): 1.00; toxicity (LDH assay) (HEK293-OATP1B1): negligible toxicity
6 | – | – | – | – | – | – | – | – | – | – | – | – | – | – | cholecystokinin 8 [CCK-8] | – | – | – | – | – | – | Km (OATP1B3 [10]): 3.8 µM
